The values below come from patent publication US6673746B1, “Virulence enhancement of bioherbicides” (priority 1999, dated 2004).

Assay [1] relates to Fusarium oxysporum. Type of assay: cell-based. Particulars: 0.5 ml of 1000 :g/ml analog in well, minimal medium, 28° C. The procedure: Mutant selection. The inhibitory effect of valine and valine analogs was tested against the selected Fusarium spp., using a well zone-diffusion assay on a minimal medium. Seven available valine analogs were tested. The gradient plates were prepared as follows: Minimal media was poured into Petri dishes, then a disk (diameter=10 mm) of the solidified medium was cut out (with number 5 cutter) from the center of the plate and filled with the sterile solution of an analog (0.5 ml of a 1000 :g/ml of analog in sterile distilled H2O). The solution was gradually applied to the well and the plates were allowed to dry and form a gradient under the hood for 24 hours. A Fusarium oxysporum microconidia suspension of 10^7 sp/ml was obtained by washing a 10-14 day fungal culture grown on minimal medium (with nitrate) with 10 ml of sterile H2O. Five hundred :1 of the spore suspension was thoroughly spread across the plate with a glass rod. These plates were then incubated at 28° C.

The subject of assay [2] is Cannabis sativa. Type of assay: in vivo. The procedure:
(§1) Amino Acid Toxicity Tests on Plants. Germinated seeds of Cannabis sativa, Papaver somniferum, and Nicotiana tobaccum were transferred to minimal medium (3% Sucrose (w/v), 1.7 g/l Yeast extract base without amino acids (Difco Laboratories, Detroit, Mich.), 16 g/l Ultrapure Agar (USB, Cleveland, Ohio)) supplemented with increasing concentrations of amino acids. Each amino acid was supplemented at eight concentrations (0 mM, 0.01 mM, 0.1 mM, 0.5 mM, 1 mM, 2 mM, 3 mM, 4 mM), and each treatment was replicated six times. Five pregerminated seeds were placed on each plate, per replication. Plates were incubated at ambient temperature with 12-hour diurnal period for two weeks. The fresh weight per seedling was calculated at the end of the experiment.

For assay [3], the system named is Nicotiana tobaccum. The experiment in a line: Amino acid toxicity test on plants, tobacco seedlings. The assay is classed as in vivo. The conditions noted are these: 0.1 mM on agar media. The procedure: as §1
The test system of assay [4] is Papaver somniferum. In words: Amino acid toxicity test on plants, Papaver somniferum seedlings. The assay is classed as in vivo. Particulars: for reduction of fresh weight of P. somniferum seedlings: 1 mM; for inhibition of P. somniferum seedling growth compared with the other amino acids: in vivo; for reduction of fresh weight of P. somniferum seedlings vs control: 0.1 mM. The procedure:
as §1

Regarding `CCC(C)C(=O)C(=O)O` (racemic) [DL-α-keto-β-methyl valeric acid], the “inhibitory effect on strains of F. oxysporum” value (shortened to “inhibitory effect on strains”) in assay [1] is listed as “not inhibitory”.
`CC[C@H](N)C(=O)O` [L-amino-n- butyric acid]: in assay [1], the “inhibitory effect on strains” value was “not inhibitory”.
As to `CC(C)[C@H](N)C(N)=O` [L-valine amide], the “inhibitory effect on strains” value in assay [1] was “not inhibitory”.
For `CC(C)[C@H](N)C(=O)NO` [L-valine hydroxamate], in assay [1], the “inhibitory effect on strains” value is given as “not inhibitory”.
In the case of `CC(C)[C@H](N)CO` [L-valinol], the “inhibitory effect on strains” value in assay [1] was “not inhibitory”.
As to `CCC[C@H](N)C(=O)O` [Norvaline], in assay [1], the “inhibitory effect on strains” value is “inhibitory”.
On the same count and under the same terms, next, `CC(C)(S)[C@@H](N)C(=O)O` [penicillamine]: “inhibitory”.
For the compound `N[C@@H](Cc1ccccc1)C(=O)O` [phenylalanine], in assay [2] (0.1 mM in minimal medium), the “reduction of fresh weight of C. sativa seedlings vs control” value is listed as 40-45%. In addition, the “reduction of fresh weight of tobacco seedlings vs control” value in assay [3] is on record as 20%. In assay [4], the “reduction of fresh weight of P. somniferum seedlings” value was determined as 20% and the “inhibition of P. somniferum seedling growth compared with the other amino acids” value was “less inhibitory”.
`N[C@@H](Cc1c[nH]c2ccccc12)C(=O)O` [tryptophan]: the “reduction of fresh weight of tobacco seedlings vs control” value in assay [3] was 20%. Besides, in assay [4], the “reduction of fresh weight of P. somniferum seedlings” value is reported as 20% and the “inhibition of P. somniferum seedling growth compared with the other amino acids” value is given as “less inhibitory”.
With `N[C@@H](Cc1ccc(O)cc1)C(=O)O` [tyrosine], the “reduction of fresh weight of C. sativa seedlings” value in assay [2] (1 mM in minimal medium) is reported as 25-30%. Also, in assay [2] (in vivo), the “inhibition of C. sativa seedlings compared with the other amino acids” value was “less inhibitory than other amino acids tested”. The “reduction of fresh weight of tobacco seedlings vs control” value in assay [3] was 50-60%. Moreover, in assay [4], the “reduction of fresh weight of P. somniferum seedlings vs control” value is on record as “about 40%”.
Consider `CC(C)[C@H](N)C(=O)O` [valine], for which the “reduction of fresh weight of C. sativa seedlings vs control” value in assay [2] (0.1 mM in minimal medium) was 50%. Moreover, in assay [2] (0.1 mM in minimal medium, two weeks), the “fresh weight of C. sativa seedlings relative to control seedlings” value is recorded as “half of the control”. For the same compound, in assay [2] (minimal media with nitrate), the “concentration at which inhibitory effects on growth of C. sativa seedlings start” value is 0.1 mM. Further, the “reduction of fresh weight of P. somniferum seedlings vs control” value in assay [4] is on record as “about 60%”.
